Literature values as cited in patent US7148216B2, “Combinations of drugs for the treatment of neoplastic disorders” (CombinatoRx, Inc., priority 2000, dated 2006).
Where two headings read alike, the source gives them in different places.

N=C(N)c1ccc(OCCCCCOc2ccc(C(=N)N)cc2)cc1 [pentamidine isethionate, 4,4′-diamidino-diphenoxypentane di(β-hydroxyethanesulfonate)]
solubility (in ether, acetone, and chloroform): insoluble
solubility (in water and glycerin): soluble
